Measured values reported in patent US4232006A, “Antibiotic W-10 complex, antibiotic 20561 and antibiotic 20562 as antifungal agents” (Schering Corporation, priority 1978, dated 1980).
In brackets after ≈: the same amount, converted by molar mass. Numbered stars: 1 amine (or outer) side, 2 acyl side, 3 side chain; on linkers, the order of the positions; unused ones are H or OH. Bridge positions count the residues as written; N and C are the ends. Square brackets hold non-standard residues; d marks the D form. Peptide text beside a SMILES is read from it. * marks the point of attachment. NMeT = CN[CH](C(=O)O)[CH](C)O; X1 = CCCCCCCCCCCC(O)CC(=O)*; X2 = CC=C(N[*:1])C(=O)[*:2]; X3 = OCC1OC(*)C(O)C(O)C1O

Assays:
[1] = Toxicity (LD50), oral or subcutaneous administration; assay type: in vivo
[2] = tested on: Saccharomyces cerevisiae ATCC 9763; test: Agar diffusion potency assay against standard solution of Antibiotic 20562; assay type: cell-based
Procedure: Peak Antibiotic W-10 Complex production is determined by periodic sampling of the fermentation mixture and by subjecting the samples to an agar diffusion assay using Saccharomyces cerevisiae ATCC 9763 as the test organism. The broths are assayed against a standard solution of Antibiotic 20562 having an assigned potency of 1000 mcg/mg. The standard solution is diluted with 10% potassium phosphate buffer (pH 6.0) to make solutions having antibiotic concentrations of 3.2, 4.0, 5.0, 6.25 and 7.8 mcg/ml. The assay is performed substantially as set forth in the Federal Register, Title 21, Chapter 436.105.

Candida albicans [3] = test: In vivo protection (PD50) of mice intravenously infected with Candida albicans; set-up: species or system male CF1 mice; details: single dose one hour after i.v. infection, determined 48 hours after infection
Procedure: The in vivo activity of Antibiotic 20561, Antibiotic 20562 and the Antibiotic W-10 complex are obtained using male CF1 mice (Carworth Famrs) given a single oral or subcutaneous dose one hour after intraveneous infection with sufficient Candida albicans to kill 80% of the infected mice in 48 hours.
PD50 values were determined 48 hours after infection and are as follows: […]

[4] = tested on: Trichophyton mentagrophytes; test: In vivo topical activity against Trichophyton mentagrophytes skin infection in guinea pigs; details: 1% suspension in polyethylene glycol 400, topical twice daily for ten days from three days after infection
Procedure: The skin of fifteen guinea pigs is abraided and infected with a standard culture of Trichophyton mentagropytes. The infected animals are then separated into three groups containing five animals each. Suspensions containing 1% of the respective antibiotics in polyethylene glycol 400 are prepared. Two of the three groups are treated topically, twice daily for ten days commencing three days after infection. The third group (controls) remained untreated throughout the test. All of the animals are tested for infection by culture and observed for skin lesions for a total of 21 days.

Aeromonas sp. W-10 = test: Resistance of Aeromonas sp. W-10 to antibacterial agents (physiological characteristics); assay type: cell-based
Description: Based upon the physiological characteristics, morphology and the guanine plus cytosine content of isolated DNA, we have classified the organism as a novel member of the genus Aeromonas. We have designated the bacterium Aeromonas sp. W-10, sometimes referred to herein as Aeromonas W-10, and have deposited the microorganism with the United States Department of Agriculture, Northern Utilization Research and Development Division (NRRL), Peoria, Illinois, from whom subcultures are available. The microorganism has been assigned the numerical designation NRRL B-11053. […]. When observed microscopically, Aeromonas sp. W-10 is seen to be a non-spore forming, gram-negative rod approximately 0.5 to 1.0×1.0-1.5 microns. It occurs singly and is motile by means of a single polar flagellum. The organism is facultatively anaerobic, oxidase positive, capable of reducing nitrates to nitrites, insensitive to the vibriostatic compound 2 4-diamino-6,7-diisopropylpteridine (0/129) with a guanine-cytosine content of DNA at 61%. According to Bergy's Manual of Determinative Bacteriology, 8th Edition, the organism is, on the basis of the data set forth, classified as a member of the genus Aeromonas.
The growth and physiological characteristics of Aeromonas sp. All observations were made after seven (7) days of incubation at 28° C. […]

[5] = tested on: Candida albicans (Wisconsin strain); test: Topical in vivo activity against Candida albicans intravaginal infection in hamsters
Procedure: Using a culture of Candida albicans (Wisconsin strain), in Sabourrauds dextrose broth, infect intravaginally, five groups of six female hamsters. Forty-eight and seventy-two hours after infection, make smears of the infected animals and culture the smears. […] (96 hours after infection), make additional smears, culture and commence treatment. One group of six animals (controls) receives no treatment and, therefore, remains infected throughout the test. The remaining four groups of animals are treated with Antibiotic 20562, as 1%, 5%, 10% and 15% suspensions, respectively, the vehicle for suspension being administered on a cotton swab. At the end of the three day treatment the 1%, 5% and 10% groups are 60% cured, the 15% group is completely (100%) cured.

Candida albicans [6] = test: MIC in vitro in Sabourraud dextrose broth against strains of Candida albicans; assay type: cell-based
Procedure: Antibiotic 20562 was tested in vitro in Sabourraud dextrose broth against strains of Candida albicans, the Minimum Inhibitory Concentration (MIC) being set forth in Table IV below: […]

[7] = products of Example 2 step B, precipitated after silica gel chromatography
[8] = products of Example 3 steps C and D
[9] = separated antibiotics, crystalline solids from methanol, vs standard of 1000 mcg/mg

## CC=C(NC(=O)CC(O)CCCCCCCCCCC)C(=O)NC1C(=O)NC(C(C)O)C(=O)NC(Cc2ccc(O)cc2)C(=O)NC(=CC)C(=O)NC(CCC(N)=O)C(=O)NCC(=O)N(C)C(C(C)O)C(=O)NC(Cc2cnc[nH]2)C(=O)OC1C (centres unmarked) [Antibiotic 20561] (X1-[X2]TTY[X2]QG[NMeT]H; ester 2-C; configuration not given here)
[1]; oral administration
  LD50: 1000 mg/kg
[1]; subcutaneous administration
  LD50: > 1000 mg/kg
[2]; [7]
  Assay (potency by agar diffusion): 800 µg/mg
[2]; [8]
  Assay (potency by agar diffusion): 800 µg/mg
[2]; [9]
  Assay (potency by agar diffusion): about 800 mcg/mg
Candida albicans [3]; oral administration
  PD50: 25 mg/kg
Candida albicans [3]; subcutaneous administration
  PD50: 4 mg/kg
[4]
  Days to become negative: Culture: 4.8 days
  Days to become negative: Lesion: 6.3 days

## CC(C)c1nc2nc(N)nc(N)c2nc1C(C)C [0/129, 2 4-diamino-6,7-diisopropylpteridine]
Aeromonas sp. W-10
  sensitivity of the organism to the vibriostatic compound: insensitive

## CC=C(NC(=O)CC(O)CCCCCCCCCCC)C(=O)NC1C(=O)NC(C(C)O)C(=O)NC(Cc2ccc(O)cc2)C(=O)NC(=CC)C(=O)NC(CCC(N)=O)C(=O)NCC(=O)N(C)C(C(C)OC2OC(CO)C(O)C(O)C2O)C(=O)NC(Cc2cnc[nH]2)C(=O)OC1C (centres unmarked) [Antibiotic 20562] (X1-[X2]TTY[X2]QG[NMeT](X3)H; ester 2-C; configuration not given here)
[5]; 1% suspension
  cured at end of three day treatment: 60%
[5]; 5% suspension
  cured at end of three day treatment: 60%
[5]; 10% suspension
  cured at end of three day treatment: 60%
[5]; 15% suspension
  cured at end of three day treatment: 100%
[1]; oral administration
  LD50: 800 mg/kg
[1]; subcutaneous administration
  LD50: 600 mg/kg
[2]; [7]
  Assay (potency by agar diffusion): 800 µg/mg
[2]; [8]
  Assay (potency by agar diffusion): 1000 µg/mg
[2]; [9]
  Assay (potency by agar diffusion): about 1000 mcg/mg
Candida albicans [3]; oral administration
  PD50: 25 mg/kg
Candida albicans [3]; subcutaneous administration
  PD50: 4 mg/kg
Candida albicans [6]; Candida albicans strain 29
  MIC: 0.075 µg/mL (≈ 0.0552 µM)
Candida albicans [6]; Candida albicans strain Bevan
  MIC: 0.075 µg/mL (≈ 0.0552 µM)
Candida albicans [6]; Candida albicans strain Burke
  MIC: 0.075 µg/mL (≈ 0.0552 µM)
Candida albicans [6]; Candida albicans strain Collins
  MIC: 0.075 µg/mL (≈ 0.0552 µM)
Candida albicans [6]; Candida albicans strain Fix
  MIC: 0.075 µg/mL (≈ 0.0552 µM)
Candida albicans [6]; Candida albicans strain Lush
  MIC: 0.075 µg/mL (≈ 0.0552 µM)
Candida albicans [6]; Candida albicans strain Merkel
  MIC: 0.075 µg/mL (≈ 0.0552 µM)
Candida albicans [6]; Candida albicans strain Newcomb
  MIC: 0.075 µg/mL (≈ 0.0552 µM)
Candida albicans [6]; Candida albicans strain No. 1
  MIC: 0.075 µg/mL (≈ 0.0552 µM)
Candida albicans [6]; Candida albicans strain Raub
  MIC: 0.075 µg/mL (≈ 0.0552 µM)
Candida albicans [6]; Candida albicans strain Sperk
  MIC: 0.075 µg/mL (≈ 0.0552 µM)
Candida albicans [6]; Candida albicans strain Wisconsin
  MIC: 0.075 µg/mL (≈ 0.0552 µM)
[4]
  Days to become negative: Culture: 5.8 days
  Days to become negative: Lesion: 9.0 days
